Test results from publication PMC8583760, “Pharmacokinetic interaction between rhynchopylline and pellodendrine via CYP450 enzymes and P-gp” (Pharmaceutical Biology, 2021).

How the values were obtained:
[1] = target: T1, CYP1A2 (Rattus norvegicus, UniProt P04799); test: CYP probe substrate depletion in rat liver microsomes, HPLC; format: biochemical; details: typical CYP1A2 substrate (not named); 0-100 μM inhibitor
T1 construct: native full-length enzyme in rat liver microsomes
T1 sequence (P04799 2-513): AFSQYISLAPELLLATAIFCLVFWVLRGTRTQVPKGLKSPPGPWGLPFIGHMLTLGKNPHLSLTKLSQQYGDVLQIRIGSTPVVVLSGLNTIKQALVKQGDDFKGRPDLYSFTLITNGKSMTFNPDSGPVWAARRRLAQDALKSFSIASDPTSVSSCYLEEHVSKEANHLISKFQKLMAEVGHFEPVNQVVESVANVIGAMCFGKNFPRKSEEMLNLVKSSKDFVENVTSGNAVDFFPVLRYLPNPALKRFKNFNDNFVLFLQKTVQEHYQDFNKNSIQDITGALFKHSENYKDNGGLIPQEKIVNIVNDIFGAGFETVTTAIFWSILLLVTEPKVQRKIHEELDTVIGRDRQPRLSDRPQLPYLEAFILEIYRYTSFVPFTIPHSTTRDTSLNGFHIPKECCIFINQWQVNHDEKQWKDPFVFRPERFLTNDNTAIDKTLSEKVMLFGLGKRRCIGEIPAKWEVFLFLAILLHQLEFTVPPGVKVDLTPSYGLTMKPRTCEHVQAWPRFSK

[2] = test system: T2, CYP2C9; test: as above; format: biochemical; details: typical CYP2C9 substrate (not named); 0-100 μM inhibitor
T2 construct: gene Cyp2c11; native enzyme activity in rat liver microsomes

IC50 [1]: 23 µM
IC50 [2]: 16.2 µM
Structure (SMILES): COc1cc2c(cc1O)C[C@H]1c3cc(O)c(OC)cc3CC[N@@+]1(C)C2 [pellodendrine]
